Test results taken from article PMC10869683, “Structure of recombinant formate dehydrogenase from Methylobacterium extorquens (MeFDH1)” (Scientific Reports, 2024).

Key:
[1] = biological target: T1, recombinant MeFDH1 (alpha/beta heterodimer), MeFDH1-β FMN / diaphorase site (Methylorubrum extorquens, UniProt C5ATT6); test: formate oxidation coupled to NAD+ reduction, A340; type: biochemical; conditions: 30 mM potassium formate, 0.5 mM NAD+, 50 mM MOPS, 30 °C; pH not given; site in beta inferred by homology
T1 construct: gene fdh1B; same complex as P1, site in beta subunit; C-terminal His6 on alpha; expressed in M. extorquens AM1 fdh1 knockout; heterodimer ~169 kDa; with Formate dehydrogenase subunit alpha (tungsten-containing formate dehydrogenase alpha subunit)

[2] = biological target: T2, recombinant MeFDH1 (alpha/beta heterodimer), MeFDH1-α active site (Methylorubrum extorquens, UniProt C5ATT7); conditions: 30 mM potassium formate, 0.5 mM NAD+, 50 mM MOPS, 30 °C; pH not given
T2 construct: gene fdh1A
T2 sequence (C5ATT7 1-989): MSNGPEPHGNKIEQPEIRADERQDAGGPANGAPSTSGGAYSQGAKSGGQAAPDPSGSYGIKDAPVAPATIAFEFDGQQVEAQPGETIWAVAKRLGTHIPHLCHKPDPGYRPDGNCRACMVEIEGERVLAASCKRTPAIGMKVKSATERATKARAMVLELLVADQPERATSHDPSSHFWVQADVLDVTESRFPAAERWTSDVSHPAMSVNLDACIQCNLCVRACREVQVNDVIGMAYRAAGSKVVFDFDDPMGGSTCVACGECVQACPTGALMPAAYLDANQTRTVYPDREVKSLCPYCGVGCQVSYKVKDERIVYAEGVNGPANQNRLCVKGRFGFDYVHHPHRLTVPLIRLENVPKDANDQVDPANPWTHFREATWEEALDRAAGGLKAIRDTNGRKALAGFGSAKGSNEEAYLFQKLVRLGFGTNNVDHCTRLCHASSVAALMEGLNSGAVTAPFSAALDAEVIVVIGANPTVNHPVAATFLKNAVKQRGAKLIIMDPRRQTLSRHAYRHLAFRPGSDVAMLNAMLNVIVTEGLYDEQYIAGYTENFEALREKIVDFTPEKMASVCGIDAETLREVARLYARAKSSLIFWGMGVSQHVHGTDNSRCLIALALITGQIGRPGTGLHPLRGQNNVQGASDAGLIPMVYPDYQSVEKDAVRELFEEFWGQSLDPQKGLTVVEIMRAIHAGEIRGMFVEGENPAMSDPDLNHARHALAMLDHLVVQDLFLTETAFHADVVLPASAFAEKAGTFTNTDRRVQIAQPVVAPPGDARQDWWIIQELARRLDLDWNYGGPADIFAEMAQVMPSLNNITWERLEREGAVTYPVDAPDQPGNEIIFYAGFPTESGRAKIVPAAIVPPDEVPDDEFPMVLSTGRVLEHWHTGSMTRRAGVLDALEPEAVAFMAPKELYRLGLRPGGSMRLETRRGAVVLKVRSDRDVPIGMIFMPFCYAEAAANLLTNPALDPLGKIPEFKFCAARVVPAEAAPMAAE
T2 sequence (C5ATT6 1-572 partner): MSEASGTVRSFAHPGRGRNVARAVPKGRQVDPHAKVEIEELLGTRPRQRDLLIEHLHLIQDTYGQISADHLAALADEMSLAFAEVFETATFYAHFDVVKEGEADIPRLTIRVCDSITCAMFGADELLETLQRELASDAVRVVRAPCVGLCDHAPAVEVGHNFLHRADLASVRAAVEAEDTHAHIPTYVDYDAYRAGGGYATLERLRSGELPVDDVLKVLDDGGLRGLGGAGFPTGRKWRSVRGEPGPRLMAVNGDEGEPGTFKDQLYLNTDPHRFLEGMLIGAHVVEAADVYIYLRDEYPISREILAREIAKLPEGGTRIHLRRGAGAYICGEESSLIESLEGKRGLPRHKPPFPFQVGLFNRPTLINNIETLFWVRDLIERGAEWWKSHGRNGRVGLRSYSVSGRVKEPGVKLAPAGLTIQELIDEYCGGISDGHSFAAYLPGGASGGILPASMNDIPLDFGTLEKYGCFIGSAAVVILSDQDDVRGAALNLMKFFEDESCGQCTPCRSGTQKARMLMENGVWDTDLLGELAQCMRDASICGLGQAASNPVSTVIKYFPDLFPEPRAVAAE

[3] = biological target: T1, recombinant MeFDH1 (alpha/beta heterodimer), MeFDH1-β FMN / diaphorase site; test: cryo-EM structure, […] Å; type: binding; conditions: FMN site at the center of the beta subunit

SMILES: NC(=O)c1ccc[n+]([C@@H]2O[C@H](COP(=O)(O)OP(=O)(O)OC[C@H]3O[C@@H](n4cnc5c(N)ncnc54)[C@H](O)[C@@H]3O)[C@@H](O)[C@H]2O)c1 [NAD^+]
- formate oxidation coupled to NAD+ reduction, A340 [1]: measuring its formate oxidation reaction coupled with NAD^+ reduction

SMILES: O=CO [formate]
- formate oxidation coupled to NAD+ reduction, A340 [2]: measuring its formate oxidation reaction coupled with NAD^+ reduction

SMILES: Cc1cc2nc3c(=O)[nH]c(=O)nc-3n(C[C@H](O)[C@H](O)[C@H](O)COP(=O)(O)O)c2cc1C [FMN]
- cryo-EM structure, 2.8 Å [3]: FMN is coordinated at the center of the MeFDH1-β subunit
